“And” between values parts separate entries of the source, which are not always exact repeats. Identical values can stand only once. Like-named read-outs stand apart in the source and are kept apart here.
Target: CT-L activity of purified 20S proteasome (Homo sapiens, UniProt P20618+P28074)
Experiment: in vitro CT-L activity of purified 20S proteasome
Format: biochemical
Details: for inhibition at 10 µM: Table 5, @ 10 μM, read-out: Screening Results (% Inhibition @ 10 μM) Chymotrypsin-like; for fold improved CT-L activity: compared to the hit 1 (PI-1833)
[1] = Table 5, read-out: IC50 (μM) Chymotrypsin-like
[2] = Table 3, read-out: IC50 (μM) CT-L
[3] = Table 1, read-out: IC50 (μM) Chymotrypsin-like activity

| Compound | IC50 (read-out: IC50, in vitro CT-L) | IC50 [3] | other results |
| --- | --- | --- | --- |
| Cc1ccc(-c2noc(CN(C(=O)COc3ccc(C(C)C)cc3)C(C)C)n2)cc1 | – | – | IC50 [1]: 4.12 ± 0.09 µM |
| CC(C)c1ccc(OCC(=O)N(Cc2nc(-c3ccc(Cl)cc3)no2)C(C)C)cc1 | – | – | IC50 [1]: 5.13 ± 0.09 µM |
| CC(C)N(Cc1nc(-c2ccccc2)no1)C(=O)CCl | – | – | inhibition at 10 µM: -53 ± 23.4% |
| Cc1ccc(OC(C)C(=O)N(Cc2nc(-c3ccccc3)no2)C(C)C)cc1 (centres unmarked) | – | – | inhibition at 10 µM: 92.43 ± 0.82%; IC50 [1]: 0.92 ± 0.21 µM |
| Cc1ccc(OC(C)C(=O)N(Cc2nc(-c3cccnc3)no2)C(C)C)cc1 (centres unmarked) | – | – | inhibition at 10 µM: 92.9 ± 1.7%; IC50 [1]: 0.38 ± 0.099 µM |
| Cc1ccc(OCC(=O)N(Cc2coc(-c3ccccc3)n2)C(C)C)cc1 | – | – | IC50 [1]: 0.14 ± 0.003 µM |
| CCCc1ccc(O[C@H](C)C(=O)N(Cc2nc(-c3cccnc3)no2)C(C)C)cc1 | – | – | IC50 [1]: 2.39 µM and 1.99 µM |
| Cc1ccc(OC(C)C(=O)N(Cc2nc(-c3cccnc3)no2)C(C)C)cc1 (racemic) [16a] | 0.318 µM | – | IC50 [2]: 0.38 ± 0.099 µM |
| CCCc1ccc(OC(C)C(=O)N(Cc2nc(-c3cccnc3)no2)C(C)C)cc1 (racemic) [drawing 177] | – | – | IC50 [1]: 0.289 µM |
| CCCc1ccc(O[C@@H](C)C(=O)N(Cc2nc(-c3cccnc3)no2)C(C)C)cc1 (single isomer, unassigned) [16f] | – | – | IC50 [2]: 2.18 ± 0.28 µM |
| CCCc1ccc(O[C@@H](C)C(=O)N(Cc2nc(-c3cccnc3)no2)C(C)C)cc1 (single isomer, unassigned) [drawing 176] | – | – | IC50 [1]: 0.075 µM |
| Cc1ccc(-c2noc(CN(C(=O)COc3ccc(C(F)(F)F)cc3)C(C)C)n2)cc1 [11a, N-Isopropyl-N-((3-p-tolyl-1,2,4-oxadiazol-5-yl)methyl)-2-(4-(trifluoromethyl)phenoxy)acetamide] | ~1 µM | 1.08 ± 0.33 µM | – |
| CC(C)N(Cc1nc(-c2cccnc2)no1)C(=O)COc1ccc(C2CCCCC2)cc1 [11ah] | – | 1.36 ± 0.184 µM | fold loss of CT-L activity (compared to 11ad or 11ae): 40 fold |
| CC(C)N(Cc1nc(-c2ccccc2)no1)C(=O)COc1ccc(C(=O)OC(C)(C)C)cc1 [11aq, tert-Butyl 4-(2-(isopropyl((3-phenyl-1,2,4-oxadiazol-5-yl)methyl)amino)-2-oxoethoxy)benzoate] | – | > 10 µM | – |
| CC(C)N(Cc1nc(-c2ccccc2)no1)C(=O)COc1ccc(C(F)(F)F)cc1 [11b, N-Isopropyl-N-((3-phenyl-1,2,4-oxadiazol-5-yl)methyl)-2-(4-(trifluoromethyl)phenoxy)acetamide] | 0.3 to 0.5 µM | 0.43 ± 0.12 µM | – |
| CC(C)N(Cc1nc(-c2ccc(C(F)(F)F)cc2)no1)C(=O)COc1ccc(C(F)(F)F)cc1 [11c, N-Isopropyl-2-(4-(trifluoromethyl)phenoxy)-N-((3-(4-(trifluoromethyl)phenyl)-1,2,4-oxadiazol-5-yl)methyl)acetamide] | 2.53 µM | – | – |
| CC(C)N(Cc1nc(-c2ccc(Cl)cc2)no1)C(=O)COc1ccc(C(F)(F)F)cc1 [11d, N-((3-(4-chlorophenyl)-1,2,4-oxadiazol-5-yl)methyl)-N-isopropyl-2-(4-(trifluoromethyl)phenoxy)acetamide] | ~1 µM | 0.857 ± 0.35 µM | – |
| CC(C)N(Cc1nc(-c2ccc(C(F)(F)F)cc2)no1)C(=O)COc1ccc(Cl)cc1 [11f, 2-(4-Chlorophenoxy)-N-isopropyl-N-((3-(4-(trifluoromethyl)phenyl)-1,2,4-oxadiazol-5-yl)methyl)acetamide] | ~1 µM | 1.4 ± 0.185 µM | – |
| CC(C)N(Cc1nc(-c2ccc(Cl)cc2)no1)C(=O)COc1ccc(Cl)cc1 [11g, 2-(4-Chlorophenoxy)-N-((3-(4-chlorophenyl)-1,2,4-oxadiazol-5-yl)methyl)-N-isopropylacetamide] | 1.07 µM | – | – |
| CC(C)N(Cc1nc(-c2ccccc2)no1)C(=O)COc1ccc(Cl)cc1 [11h, 2-(4-Chlorophenoxy)-N-isopropyl-N-((3-phenyl-1,2,4-oxadiazol-5-yl)methyl)acetamide] | 0.3 to 0.5 µM | 0.51 ± 0.16 µM | – |
| CC(C)N(Cc1nc(-c2ccccc2)no1)C(=O)COc1ccccc1 [11j, N-Isopropyl-2-phenoxy-N-((3-phenyl-1,2,4-oxadiazol-5-yl)methyl)acetamide] | 6.22 µM | – | fold loss of CT-L activity (compared to 1): 10 fold |
| CC(C)N(Cc1nc(-c2ccc(C(F)(F)F)cc2)no1)C(=O)COc1ccccc1 [11l, N-Isopropyl-2-phenoxy-N-((3-(4-(trifluoromethyl)phenyl)-1,2,4-oxadiazol-5-yl)methyl)acetamide] | 15 µM | 15.1 ± 6.94 µM | fold loss of CT-L activity (compared to 1): 25 fold |
| Cc1ccc(OCC(=O)N(Cc2nc(-c3ccc(C(F)(F)F)cc3)no2)C(C)C)cc1 [11n, N-Isopropyl-2-(p-tolyloxy)-N-((3-(4-(trifluoromethyl)phenyl)-1,2,4-oxadiazol-5-yl)methyl)acetamide] | ~1 µM | 0.97 ± 0.15 µM | – |
| Cc1cccc(OCC(=O)N(Cc2nc(-c3ccccc3)no2)C(C)C)c1 [11o, N-isopropyl-N-((3-phenyl-1,2,4-oxadiazol-5-yl)methyl)-2-(m-tolyloxy)acetamide] | – | > 10 µM | CT-L inhibitory activity, in words: loss of in vitro activity |
| Cc1ccccc1OCC(=O)N(Cc1nc(-c2ccccc2)no1)C(C)C [11p, N-Isopropyl-N-((3-phenyl-1,2,4-oxadiazol-5-yl)methyl)-2-(o-tolyloxy)acetamide] | – | > 10 µM | CT-L inhibitory activity, in words: loss of in vitro activity |

Now from value to compound, other results behind:

| IC50 (read-out: IC50, in vitro CT-L) | IC50 [3] | Compound | other results |
| --- | --- | --- | --- |
| 0.289 µM | – | CCCc1ccc(OC(C)C(=O)N(Cc2nc(-c3cccnc3)no2)C(C)C)cc1 (racemic) [16d, N-Isopropyl-2-(4-propylphenoxy)-N-((3-(pyridine-3-yl)-1,2,4-oxadiazol-5-yl)methyl)propanamide] | – |
| 0.26 ± 0.05 µM | 0.267 ± 0.05 µM | CCc1ccc(OCC(=O)N(Cc2nc(-c3ccccc3)no2)C(C)C)cc1 [11aa, 2-(4-Ethylphenoxy)-N-isopropyl-N-((3-phenyl-1,2,4-oxadiazol-5-yl)methyl)acetamide] | fold improved CT-L activity: 2 fold |
| 0.099 ± 0.03 µM | – | CCc1ccc(OCC(=O)N(Cc2nc(-c3cccnc3)no2)C(C)C)cc1 [11ab, 2-(4-Ethylphenoxy)-N-isopropyl-N-((3-pyridin-3-yl)1,2,4-oxadiazol-5-yl)methylacetamide] | fold improved CT-L activity: 6 fold |
| 3.12 ± 1.11 µM | – | CC(C)N(Cc1nc(-c2cccnc2)no1)C(=O)COc1ccccc1 [11ac, N-Isopropyl-2-phenoxy-N-((3-(pyridine-3-yl)-1,2,4-oxadiazol-5-yl)methyl)acetamide] | – |
| 0.039 µM | – | CCCCc1ccc(OCC(=O)N(Cc2nc(-c3cccnc3)no2)C(C)C)cc1 [11ae, 2-(4-Butylphenoxy)-N-isopropyl-N-((3-(pyridine-3-yl)-1,2,4-oxadiazol-5-yl)methyl)acetamide] | fold improved CT-L activity: 20 fold |
| – | 0.121 ± 0.04 µM | CCCCCc1ccc(OCC(=O)N(Cc2nc(-c3cccnc3)no2)C(C)C)cc1 [11af] | fold loss of CT-L activity (compared to 11ad or 11ae): 4 fold |
| – | 0.428 ± 0.038 µM | CCCCCCc1ccc(OCC(=O)N(Cc2nc(-c3cccnc3)no2)C(C)C)cc1 [11ag, 2-(4-Hexylphenoxy)-N-isopropyl-N-((3-(pyridine-3-yl)-1,2,4-oxadiazol-5-yl)methyl)acetamide] | fold loss of CT-L activity (compared to 11ad or 11ae): 13 fold |
| – | 0.436 ± 0.073 µM | CC(C)c1ccc(OCC(=O)N(Cc2nc(-c3cccnc3)no2)C(C)C)cc1 [11ai, N-Isopropyl-2-(4-isopropylphenoxy)-N-((3-(pyridin-3-yl)-1,2,4-oxadiazol-5-yl)methyl)acetamide] | CT-L inhibitory activity, in words: failed to improve the CT-L activity |
| – | 65.9 ± 33.7 µM | CC(C)N(Cc1nc(-c2cccnc2)no1)C(=O)COc1ccc(C(C)(C)C)cc1 [11aj, N-Isopropyl-2-(4-tert-butylphenoxy)-N-((3-(pyridin-3-yl)-1,2,4-oxadiazol-5-yl)methyl)acetamide] | CT-L inhibitory activity, in words: failed to improve the CT-L activity; fold loss of CT-L activity (compared to 11ad or 11ae): > 35 fold |
| – | 0.14 ± 0.052 µM | CC(C)Cc1ccc(OCC(=O)N(Cc2nc(-c3cccnc3)no2)C(C)C)cc1 [11ak, N-Isopropyl-2-(4-isobutylphenoxy)-N-((3-(pyridin-3-yl)-1,2,4-oxadiazol-5-yl)methyl)acetamide] | CT-L inhibitory activity, in words: failed to improve the CT-L activity |
| 0.032 µM | – | CCCc1ccc(OCC(=O)N(Cc2nc(-c3cncnc3)no2)C(C)C)cc1 [11al] | – |
| – | 0.105 ± 0.031 µM | CCCc1ccc(OCC(=O)N(Cc2nc(-c3cnccn3)no2)C(C)C)cc1 [11am, N-Isopropyl-2-(4-propylphenoxy)-N-((3-(pyrazin-2-yl)-1,2,4-oxadiazol-5-yl)methyl)acetamide] | fold loss of CT-L activity (compared to 11ad or 11ae): 3 fold |
| – | 0.107 ± 0.013 µM | CCCCc1ccc(OCC(=O)N(Cc2nc(-c3cnccn3)no2)C(C)C)cc1 [11an] | fold loss of CT-L activity (compared to 11ad or 11ae): 3 fold |
| 1.26 µM | 1.27 ± 0.226 µM | CCCc1ccc(OCC(=O)N(Cc2nc(-c3ncccn3)no2)C(C)C)cc1 [11ao, N-Isopropyl-2-(4-propylphenoxy)-N-((3-(pyrimidin-2-yl)-1,2,4-oxadiazol-5-yl)methyl)acetamide] | fold loss of CT-L activity (compared to 11ad or 11ae): 40 fold |
| ~1 µM | 1.12 ± 0.33 µM | Cc1ccc(-c2noc(CN(C(=O)COc3ccc(Cl)cc3)C(C)C)n2)cc1 [11e, 2-(4-Chlorophenoxy)-N-isopropyl-N-((3-p-tolyl-1,2,4-oxadiazol-5-yl)methyl)acetamide] | – |
| ~1 µM | 0.45 ± 0.15 µM | Cc1ccc(OCC(=O)N(Cc2nc(-c3ccc(Cl)cc3)no2)C(C)C)cc1 [11i, N-((3-(4-chlorophenyl)-1,2,4-oxadiazol-5-yl)methyl)-N-isopropyl-2-(p-tolyloxy)acetamide] | – |
| 8.4 µM | 8.47 ± 0.59 µM | Cc1ccc(-c2noc(CN(C(=O)COc3ccccc3)C(C)C)n2)cc1 [11k, N-Isopropyl-2-phenoxy-N-((3-p-tolyl-1,2,4-oxadiazol-5-yl)methyl)acetamide] | fold loss of CT-L activity (compared to 1): 13 fold |
| 0.3 to 0.5 µM | 0.31 ± 0.08 µM | Cc1ccc(OCC(=O)N(Cc2nc(-c3ccccc3)no2)C(C)C)cc1 [11m, N-isopropyl-N-((3-phenyl-1,2,4-oxadiazol-5-yl)methyl)-2-(p-tolyloxy)acetamide] | – |
